Measured values from patent US4288609A, “Quaternary ammonium derivatives of adamantane with antimicrobic activity” (priority 1976, dated 1981).
Like-named read-outs stand apart in the source and are kept apart here.

Tests used:
Esch. Coli. SKF 12140 = test: M.I.C. in vitro, gram- Esch. Coli (Table 1); type: cell-based, Escherichia Coli; details: Escherichia coli, read-out: M.I.C.
Method: (§1) The method for evaluating the activity in vitro against bacteria, fungi and protozoa consists in introducing calculated quantities of the substance, the activity of which it is desired to test, into culture media already inoculated with a predetermined number of test germs.
(§2) After 24 or 48 hours of incubation at 30° or 37° C., according to the micro-organism being tested, it is possible to evaluate the growth of the same in the culture broth; in this manner the minimum concentration (M.I.C.) which inhibits the growth of the micro-organisms in vitro is determined.
(§3) In table 1 there are recorded the M.I.C. values in γ/ml of the products subject of the present invention, against certain gram+ and gram- bacterial strains, some of which are pathogenic towards human beings.

[1] = system: Candida Pseudotrop. ATCC 2512; test: MIC yeasts, Candida pseudotropicalis (Table 2); type: cell-based; details: Sabourand broth
Method: as §1, §2
(§4) Inoculation with Candida albicans or Candida pseudotropicalis was made by diluting cultures grown for 24 h at 30° C. (cellular density inoculated 10^3 /ml).
(§5) For the fungi Sabourand broth was used as a culture medium, whilst for the protozoa Kupferberg Trichomonas broth with 5% of horse serum was used.

[2] = system: Trich. Vaginalis ISM 66/22; test: MIC protozoa, Trichomonas vaginalis (Table 2); type: cell-based; details: Trichomonas vaginalis, +10% serum (head); Kupferberg Trichomonas broth with 5% of horse serum; read-out: MIC
Method: as §1, §2
(§6) Inoculation with Trichomonas vaginalis and Trichomonas foetus, obtained from cultures transplanted every other day to make them lively, was effected in a ratio of 3.5% of the volume of medium used.
as §5

Proteus Vulc. ATCC 881 = test: M.I.C. in vitro, gram- Proteus Vulc. (Table 1); type: cell-based; details: read-out: M.I.C.
Method: as §1, §2, §3

[3] = system: Nicrosporum Canis ATCC 11621; test: MIC mildews, Microsporum canis (Table 2); type: cell-based; details: Sabourand broth
Method: as §1, §2
(§7) Inoculation with Trichophyton mentagrophytes and Microsporum canis was effected in a ratio of 1% of the volume of medium used.
as §5

Candida Albic. SKF 2270 = test: MIC yeasts, Candida albicans (Table 2); type: cell-based; details: Sabourand broth
Method: as §1, §2, §4, §5

Pseudom.Aer. ATCC 1014 = test: M.I.C. in vitro, gram- Pseudom. Aer. (Table 1); type: cell-based, Pseudomonas Aeruginosa; details: for MIC: Pseudomonas aeruginosa, read-out: M.I.C.
Method: as §1, §2, §3

Staph.Aureus Tour = test: M.I.C. in vitro, gram+ Staph. Aureus (Table 1); type: cell-based, Staphylococcus Aureus; details: Staphylococcus aureus, read-out: M.I.C.
Method: as §1, §2, §3

Diplococcus Pneum. ISM = test: M.I.C. in vitro, gram+ Diplococcus Pneum. (Table 1); type: cell-based; details: read-out: M.I.C.
Method: as §1, §2, §3

Klens. Pneum. ISM = test: M.I.C. in vitro, gram- Klens. Pneum. (Table 1); type: cell-based; details: read-out: M.I.C.
Method: as §1, §2, §3

Trich. Foetus ISM 66/23 = test: MIC protozoa, Trichomonas foetus (Table 2); type: cell-based; details: +10% serum (head), Kupferberg Trichomonas broth with 5% of horse serum
Method: as §1, §2, §6, §5

[4] = system: Trych. Mentagr. 1st.Pastuer; test: MIC mildews, Trichophyton mentagrophytes (Table 2); type: cell-based; details: Sabourand broth
Method: as §1, §2, §7, §5

[5] = system: Streptococ. Henclyt. 0203; test: M.I.C. in vitro, gram+ Streptococ. Henclyt. (Table 1); type: cell-based; details: for MIC: read-out: M.I.C.
Method: as §1, §2, §3

[6] = Acute oral toxicity in mice (Table 4); details: mouse, in vivo, po, LD50, oral, mice, 14 days
Method: The substances were administered orally to groups of 10 female mice CF1 of average weight of about 20 grams, in aqueous solution and in such way that the total volume administered would be in each case 1 ml/100 g of weight.

[7] = Candida, ATCC2512, +10% serum, read-out: MIC
[8] = Candida, ATCC2512, without serum, read-out: MIC
[9] = Microsporum canis, ATCC11621, +10% serum, read-out: MIC
[10] = Microsporum canis, ATCC11621, without serum, read-out: MIC
[11] = Candida, +10% serum, read-out: MIC
[12] = Candida, without serum, read-out: MIC
[13] = Tritrichomonas foetus, read-out: MIC
[14] = Trichophyton mentagrophytes, +10% serum, read-out: MIC
[15] = Trichophyton mentagrophytes, without serum, read-out: MIC

Row | Compound | MIC (Esch. Coli. SKF 12140; +10% serum) [µg/mL] | MIC (Esch. Coli. SKF 12140; without serum) [µg/mL] | MIC [1, 7] [µg/mL] | MIC [1, 8] [µg/mL] | MIC [2] [µg/mL] | MIC (Proteus Vulc. ATCC 881; +10% serum) [µg/mL] | MIC (Proteus Vulc. ATCC 881; without serum) [µg/mL] | MIC [3, 9] [µg/mL] | MIC [3, 10] [µg/mL] | MIC (Candida Albic. SKF 2270; [11]) [µg/mL] | MIC (Candida Albic. SKF 2270; [12]) [µg/mL] | MIC (Pseudom.Aer. ATCC 1014; ATCC1014, +10% serum) [µg/mL] | MIC (Pseudom.Aer. ATCC 1014; ATCC1014, without serum) [µg/mL] | MIC (Staph.Aureus Tour; +10% serum) [µg/mL] | MIC (Staph.Aureus Tour; without serum) [µg/mL] | MIC (Diplococcus Pneum. ISM; +10% serum) [µg/mL] | MIC (Diplococcus Pneum. ISM; without serum) [µg/mL] | MIC (Klens. Pneum. ISM; +10% serum) [µg/mL] | MIC (Klens. Pneum. ISM; without serum) [µg/mL] | LD50 at 336 h [6] [mg/kg] | other results
1 | CCCCCCCCCCC[N+](C)(C)CCOC(=O)C12CC3CC(CC(C3)C1)C2 [Example 3] | 100 | 2 | 50 | < 0.1 | 5 | 100 | 5 | 10 | < 0.1 | 20 | 0.5 | 100 | 20 | 5 | < 0.1 | 5 | 0.5 | 100 | 5 | 745 | MIC (Trich. Foetus ISM 66/23; [13]): 5 µg/mL; MIC [4, 14]: 10 µg/mL; MIC [4, 15]: 0.1 µg/mL; MIC ([5]; +10% serum): 9.2 µg/mL; MIC ([5]; without serum): < 0.1 µg/mL
2 | CCCCCCCCCC[N+](CC)(CC)CCOC(=O)C12CC3CC(CC(C3)C1)C2 [Example 5, n-Decyl-diethyl-(1-adamantane-carboxy)-ethyl-ammonium bromide] | 100 | 5 | 50 | 0.1 | 10 | 100 | 10 | 20 | 0.1 | 50 | 0.5 | 100 | 50 | 5 | < 0.1 | 10 | 0.5 | 100 | 10 | 750 | MIC (Trich. Foetus ISM 66/23; [13]): 5 µg/mL; MIC [4, 14]: 10 µg/mL; MIC [4, 15]: 0.1 µg/mL; MIC ([5]; +10% serum): 0.5 µg/mL; MIC ([5]; without serum): < 0.1 µg/mL
3 | CCCCCCCCCCCC[N+](CC)(CC)CCOC(=O)C12CC3CC(CC(C3)C1)C2 [Example 6, n-Dodecyl-diethyl-(1-adamantane-carboxy)-ethyl-ammonium bromide] | 100 | 10 | 50 | 0.5 | 10 | 100 | 20 | 50 | 0.5 | 50 | 2 | 100 | 50 | 10 | 0.1 | 5 | 2 | 100 | 10 | 935 | MIC (Trich. Foetus ISM 66/23; [13]): 5 µg/mL; MIC [4, 14]: 20 µg/mL; MIC [4, 15]: 0.5 µg/mL; MIC ([5]; +10% serum): 2 µg/mL; MIC ([5]; without serum): 0.5 µg/mL
4 | CCCCCCCCCC[N+](C)(C)CCNC(=O)C12CC3CC(CC(C3)C1)C2 [Example 7] | 100 | 10 | 50 | 0.2 | 5 | 100 | 10 | 20 | 0.5 | 50 | 5 | 100 | 50 | 5 | 0.2 | 10 | 0.5 | 50 | 10 | 955 | MIC (Trich. Foetus ISM 66/23; [13]): 2 µg/mL; MIC [4, 14]: 20 µg/mL; MIC [4, 15]: 0.5 µg/mL; MIC ([5]; +10% serum): 2 µg/mL; MIC ([5]; without serum): 0.2 µg/mL
5 | CCCCCCCCCC[N+](CC)(CC)CCNC(=O)C12CC3CC(CC(C3)C1)C2 [Example 9, n-Decyl-diethyl-(1-adamantane-carbonylamido)-ethylammonium bromide] | 50 | 5 | 50 | – | 5 | 100 | 5 | – | – | – | 1 | 50 | – | 5 | 0.1 | 5 | 1 | 50 | 10 | 980 | MIC ([1]; without serum): 0.2 µg/mL; MIC ([3]; +10% serum): 20 µg/mL; MIC ([3]; without serum): 0.2 µg/mL; MIC (Candida Albic. SKF 2270; +10% serum): 20 µg/mL; M.I.C. (Pseudom.Aer. ATCC 1014; without serum): 10 µg/mL; MIC (Trich. Foetus ISM 66/23): 2 µg/mL; MIC ([4]; +10% serum): 10 µg/mL; MIC ([4]; without serum): 0.2 µg/mL; M.I.C. ([5]; +10% serum): 0.5 µg/mL; M.I.C. ([5]; without serum): 0.1 µg/mL
6 | CCCCCCCCCCC[N+](CC)(CC)CCNC(=O)C12CC3CC(CC(C3)C1)C2 [Example 11, n-Undecyl-diethyl-(1-adamantane-carbonylamido)-ethylammonium bromide] | 100 | 5 | 20 | < 0.1 | 5 | 100 | 10 | 20 | 0.2 | 20 | 1 | 100 | 20 | 10 | < 0.1 | 5 | 1 | 100 | 5 | 935 | MIC (Trich. Foetus ISM 66/23; [13]): 5 µg/mL; MIC [4, 14]: 10 µg/mL; MIC [4, 15]: 0.1 µg/mL; MIC ([5]; +10% serum): 2 µg/mL; MIC ([5]; without serum): < 0.1 µg/mL
7 | CCCCCCCCCCCC[N+](CC)(CC)CCNC(=O)C12CC3CC(CC(C3)C1)C2 [Example 12, n-Dodecyl-diethyl-(1-adamantane-carbonylamido)-ethylammonium bromide] | 100 | 10 | 50 | 0.1 | 5 | 100 | 5 | 20 | 0.5 | 20 | 1 | 100 | 20 | 10 | 0.2 | 20 | 2 | 100 | 5 | 890 | MIC (Trich. Foetus ISM 66/23; [13]): 5 µg/mL; MIC [4, 14]: 20 µg/mL; MIC [4, 15]: 0.2 µg/mL; MIC ([5]; +10% serum): 5 µg/mL; MIC ([5]; without serum): 0.2 µg/mL
